Measurements from PMC8381248 (Frontiers in Pharmacology, 2021).
Values joined by “and” are separate entries in the source; they are usually repeats but may differ in a detail not shown here. Identical values can stand only once. Like-named read-outs stand apart in the source and are kept apart here.

Key:
[1] = Plasma protein binding rate, rapid equilibrium dialysis, human plasma; format: in vitro ADME; conditions: 37°C
Experimental: (§1) In brief, the unbound drugs (or references) were separated from plasma (human and rat) in a 96-well plate with a semipermeable membrane through which only unbound drug can permeate. The equilibrium unit was sealed and incubated at 37°C in a mixer at 100 rpm for 4 h.
(§2) Then, 50 ng/ml of midazolam and 50 ng/ml of tolbutamide (in acetonitrile) were used as IS.
(§3) After reaching equilibrium, the concentrations of the samples in both the plasma and the buffer compartment were determined. According to the specification, the resultant supernatant was collected, properly diluted by distilled water, vortexed for 10 min, and finally analyzed using LC-MS/MS. All the samples (PDG, PINL, diclofenac, and propranolol) for detection were prepared in duplicate.
(§4) The concentrations of the samples were determined by internal standard methods, in which the data were acquired and analyzed by Analyst 1.6.1 software station (AB Sciex Corporation, Boston, MA, United States). The equation of plasma protein binding rate is calculated as follows: Free drug rate (%)=CB/CA×100% (3) Plasma protein binding rate (%)=100%−Free drug rate(%) (4) C B is the drug concentration in dialysis chamber, and C A is the drug concentration in the sample chamber.

in vitro = conditions: PAMPA
Experimental: Verapamil and digoxin solutions, used as reference, prepared in the same manner as the test drugs. Tolbutamide dissolved with acetonitrile (200 ng/ml) was used as IS.
The resultant supernatants were determined by LC-MS/MS. The specific assay conditions are shown in Support Materials (Supplementary Table S2).

[2] = Kinetic solubility test in PBS; format: physicochemical; conditions: phosphate-buffer saline (PBS)
Experimental: Internal standard (IS) solutions (propranolol and tolbutamide) were dissolved by acetonitrile (50 ng/ml propranolol + 200 ng/ml tolbutamide).
The sample solutions were analyzed using LC-MS/MS. All the samples (test samples and references) for detection were prepared in duplicate. The conditions for LC-MS/MS are shown in Support Materials (Supplementary Table S1).

[3] = Pharmacokinetic study in rat plasma after intravenous and oral administration; format: in vivo, Sprague-Dawley (SD) rats; conditions: for Cmax / AUC(0-t) / Tmax / AUC(0-inf) / MRT inf / Cl_pred / HL_Lambda_z / Vz_pred: rat plasma; for AUC(0-inf): read-out: AUCINF_pred; for MRT inf: read-out: MRTINF_pred
Experimental: Eighteen male SD rats were housed in the barrier rodent facilities to acclimatize for a week in animal quarters, which had air conditioning and an automatically controlled photoperiod of 12 h of light daily. Rats had free access to standard chow diet and water until 12 h prior to the beginning of the experiment, at which time only water was accessed freely. The rats were randomly divided into six groups, with three rats in each group.
A series of calibration standard working solutions (20.0, 10.0, 2.0, 1.0, 0.2, 0.04, and 0.02 μg/ml) was prepared freshly by diluting the stock solution stepwise using ACN-water (70:30, v/v). […] The IS working solutions of 200 ng/ml of tolbutamide or 50 ng/ml of diclofenac sodium were prepared by dilution of the stock standard solution with acetonitrile solution. All the solutions were stored at 4°C and brought to room temperature before use.
QC samples (3, 40, 800, and 1,600 ng/ml) were prepared separately. For PDG urine samples, the calibration standards were prepared by spiking 5 μL of the appropriate standard working solutions of PDG to 95 μL blank rat urine to prepare the final urine concentration of PDG ranging from 1 ng/ml to 2000 ng/ml. QC samples (3, 40, 800, and 1,600 ng/ml) were prepared separately. […] QC samples (15, 30, 400, and 1,600 ng/ml) were prepared separately.
Blood samples were collected via orbital venous plexus puncture into heparinized microfuge tubes at intervals of 0, 0.083, 0.25, 0.5, 1, 2, 4, 8, 10, 24, and 30 h after administration. The plasma samples were obtained by centrifuging the blood samples at 6,000 rpm for 10 min at 4°C and storing them at −20°C until further analysis. For the plasma calibration standards, QC plasma samples, and the testing plasma samples, 40 µL of the plasma samples were extracted with 120 µL of IS working solution (tolbutamide) by vortex mixing for 1 min and at 4°C centrifugation for 10 min at 13,000 rpm. The supernatant was separated and evaporated under a gentle stream of nitrogen. The residue was reconstituted with 120 µL of 30% ACN followed by vortex mixing. Then, the solutions were centrifuged at 13,000 rpm for 10 min at 4°C.
Linear gradient elution was performed with certain portions of 10 mM ammonium acetate-water solution containing 0.1% formic acid (mobile phase A) and methanol (mobile phase B). The detailed conditions have been described in Support Materials (Supplementary Table S5).
In the ADME properties and pharmacokinetics studies, data are presented as mean ± standard deviation (SD). Statistically significant differences were analyzed by one-way ANOVA or Student’s t-test. The level of significance was set at p < 0.05. The LC/MS/MS data were collected and analyzed by Analyst 1.6.1 (AB Sciex). Pharmacokinetic analyses were performed by non-compartmental methods using Phoenix WinNolin version 6.3 (Pharsight Corporation, Mountain View, CA, United States).

[4] = Plasma protein binding rate, rapid equilibrium dialysis, rat plasma; format: in vitro ADME; conditions: 37°C
Experimental: as §1, §2, §3, §4

[5] = male, Sprague-Dawley, IV 5 mg/kg, n = 3
[6] = male, Sprague-Dawley, PO 40 mg/kg, n = 3

With COc1cc(C2OCC3C(c4ccc(OC5OC(CO)C(O)C(O)C5O)c(OC)c4)OCC23)ccc1OC1OC(CO)C(O)C(O)C1O (single isomer, unassigned; (+)) [PDG, (+)-1-pinoresinol 4,4′-di-O-β-D-glucopyranoside] the fraction unbound at 4 h, 10 µM [1] was 0.548, the Papp at 18000 s (in vitro) was 0.002 ×10⁻⁶ cm/s and the Peff (in vitro; 18000 s) was 0.02 cm/s, ×10^–7. The solubility kinetic ([2]; aqueous buffer, kinetic from dmso stock, PBS (100 mM, pH 7.4)) was 99.5 ± 14 µg/mL, the solubility kinetic ([2]; aqueous buffer, kinetic from dmso stock, PBS (pH 7.4), μg/ml value expressed in µM) was about 146 µM and the solubility kinetic ([2]; PBS (pH 7.4), μg/ml value expressed in µM) was over 100 µM. It also gave a bioavailability ([3]; male, Sprague-Dawley, plasma, rat, from AUClast of IV 5 mg/kg and PO 40 mg/kg, read-out: absolute oral bioavailability (F%)) of about 0.19%, a Cmax ([3]; male, Sprague-Dawley, rat, plasma, iv, 5 mg/kg, IV 5 mg/kg, n = 3, read-out: Cmax) of 13300 ng/mL and a Cmax ([3]; male, Sprague-Dawley, rat, plasma, iv, 5 mg/kg, IV 5 mg/kg, ng/ml value expressed in molar units, read-out: Cmax) of 19.6 µM. It also gave a Cmax ([3]; male, Sprague-Dawley, rat, plasma, po, 40 mg/kg, PO 40 mg/kg, n = 3, read-out: Cmax) of 45.3 ± 37.5 ng/mL, a Cmax ([3]; male, Sprague-Dawley, rat, plasma, po, 40 mg/kg, PO 40 mg/kg, ng/ml value expressed in molar units, read-out: Cmax) of 0.0665 µM and an AUC(0-t) [3, 5] of 7470 ng·h/mL. For the same molecule, the Tmax [3, 5] was 6 min, the AUC(0-inf) [3, 5] was 7470 ng·h/mL and the MRT inf [3, 5] was 30.6 ± 5.4 min. It also gave an AUC(0-t) [3, 6] of 113 ± 122 ng·h/mL, a Tmax [3, 6] of 30 min and an AUC(0-inf) [3, 6] of 121 ± 129 ng·h/mL. It also gave an MRT inf [3, 6] of 114 ± 57 min, a Cl_pred ([3]; IV 5 mg/kg, n = 3) of 0.69 ± 0.15 L/h/kg and an HL_Lambda_z ([3]; IV 5 mg/kg, n = 3) of 2.0 ± 0.5 h. For the same molecule, the Vz_pred ([3]; IV 5 mg/kg, n = 3) was 1.98 ± 0.43 L/kg, the Cmax ([3]; IV 5 mg/kg, n = 3, 5 mg/kg) was 13,328.57 ± 1,625.4 ng/ml and the Cl_pred ([3]; PO 40 mg/kg, n = 3) was 653.9 ± 492.6 L/h/kg. The Vz_pred ([3]; PO 40 mg/kg, n = 3) was 777.0 ± 392.4 L/kg, the HL_Lambda_z ([3]; PO 40 mg/kg, n = 3, 40 mg/kg) was 1.15 h and 1.15 ± 0.75 h and the fraction unbound at 4 h, 10 µM [4] was 0.623.
